The text below walks through data of the SangsterLogP compilation.

For the molecule `O=C(O[C@@H]1O[C@@H]2COC(=O)c3cc(O)c(O)c(O)c3-c3c(cc(O)c(O)c3O)C(=O)O[C@H]2[C@@H]2OC(=O)c3cc(O)c(O)c(O)c3-c3c(cc(O)c(O)c3O)C(=O)O[C@@H]12)c1cc(O)c(O)c(O)c1`, the logP is -1.07.

`O=C(O[C@@H]1COC(=O)c2cc(O)c(O)c(O)c2-c2c(cc(O)c(O)c2O)C(=O)OC1[C@@H]1OC(=O)c2cc(O)c(O)c(O)c2-c2c(O)c(O)c(O)c3c2C(=O)O[C@H]1[C@H]3O)c1cc(O)c(O)c(O)c1` (stereo not given in full) yielded a lipophilicity (logP) of 1.28.

`O=C(OC[C@H]1OC(O)[C@@H]2OC(=O)c3cc(O)c(O)c(O)c3-c3c(cc(O)c(O)c3O)C(=O)O[C@H]2[C@@H]1OC(=O)c1cc(O)c(O)c(O)c1-c1c(O)c(O)c2oc(=O)c3cc(O)c(O)c4oc(=O)c1c2c43)c1cc(O)c(O)c(O)c1` (stereo not given in full) came in with a logP of -2.15.

The molecule `O=CC(O)(COC(=O)c1cc(O)c(O)c(O)c1)C(O)C(O)COC(=O)c1cc(O)c(O)c(O)c1` (stereo not given) had a logP of -0.35.

`O=C(O[C@@H]1O[C@H](CO)[C@@H](O)[C@H](O)[C@H]1O)c1cc(O)c(O)c(O)c1`: the logP is -1.89.

In turn, `O=C(O[C@@H]1Cc2c(O)cc(O)cc2O[C@@H]1c1cc(O)c(O)c(O)c1)c1cc(O)c(O)c(O)c1` had a logP of 1.08.

For the molecule `O=C(O[C@H]1Cc2c(O)cc(O)cc2O[C@H]1c1ccc(O)c(O)c1)c1cc(O)c(O)c(O)c1`, the logP is 1.68.

Consider `O=C(OCC1OC(OC(=O)c2cc(O)c(O)c(O)c2)C(O)C(O)C1O)c1cc(O)c(O)c(O)c1` (stereo not given), for which the logP was -0.33.

For `O=C1OC[C@H]2OC(O)[C@@H]3OC(=O)c4cc(O)c(O)c(O)c4-c4c(cc(O)c(O)c4O)C(=O)O[C@H]3[C@@H]2OC(=O)c2cc(O)c(O)c(O)c2-c2c1cc(O)c(O)c2O` (stereo not given in full), the logP is -2.1.

For `O=c1c(O[C@@H]2O[C@H](CO)[C@@H](O)[C@H](O)[C@H]2O)c(-c2ccc(O)c(O)c2)oc2cc(O)cc(O)c12`, the logP is 0.7.

Turning to `O=CC1OC(=O)c2cc(O)c(O)c(O)c2-c2c(cc(O)c(O)c2O)C(=O)OC1C1OC(=O)c2cc(O)c(O)c(O)c2-c2c(O)c(O)c3oc(=O)c4c(c(O)c(O)c5oc(=O)c2c3c54)-c2c(cc(O)c(O)c2O)C(=O)OCC1O` (stereo not given), the lipophilicity (logP) was -2.7.

In the case of `Oc1cc(O)c2c(c1)OC(c1ccc(O)c(O)c1)C(O)C2c1c(O)cc(O)c2c1O[C@H](c1ccc(O)c(O)c1)[C@@H](O)C2` (stereo in doubt), the logP was -0.52.

On to `O=C(O[C@@H]1O[C@@H]2COC(=O)c3cc(O)c(O)c(O)c3-c3c(cc(O)c(O)c3O)C(=O)O[C@H]([C@H]1O)[C@@H]2O)c1cc(O)c(O)c(O)c1`, for which the logP is -1.19.

In turn, `COc1cc(O)c2c(=O)cc(C)oc2c1` displayed a lipophilicity (logP) of 1.

`O=C(OCC1O[C@@H](O)C(O)(COC(=O)c2cc(O)c(O)c(O)c2)C1OC(=O)c1cc(O)c(O)c(O)c1)c1cc(O)c(O)c(O)c1` (stereo not given in full) displayed a log partition coefficient (logP) of 0.61.

What is called logP is a log measure of how a compound divides between an organic and an aqueous phase.
